Reference: patent US20210228741A1, “METHODS AND COMPOSITIONS TO STIMULATE RETINAL REGENERATION” (UNIVERSITY OF WASHINGTON, priority 2018, published 2021)

Key:
[1] = tested on: Ascl1 binding at STAT3 bound regions; assay: Ascl1 ChIP-seq on control and STATi-treated cultured MG; type: cell-based, mouse; conditions: cultured P12 MG, doxycycline-induced Ascl1
Procedure: To directly assess the effect that STAT pathway activation has on Ascl1 binding at Id genes and more broadly across the genome during MG reprogramming, we performed an Ascl1 ChIP-seq on control and STATi-treated MG. Frozen stocks of MG from P12 germline-rtTA:tetO429 Ascl1 mice were thawed and cultured to confluency for 2 days in high FBS growth media. Cells were then given a low FBS media with STATi or vehicle for the remaining 4 DIV. At 3 DIV (1 day after STATi), doxycyline was administered to induce Ascl1 overexpression in the MG. Cells were then collected and fixed for ChIP-seq after 6 DIV. FASTQ files were aligned to the mm10 genome using Bowtie2 and peaks were called using MACS2. […] Both datasets contained the canonical Ascl1 E-box as the top scoring motif, as determined by HOMER, with strong central enrichment of peaks from both datasets around the Ascl1 motif. […]
Ascl1 Chromatin Immunoprecipitation-Sequencing (ChIP-Seq): P0 retinas or cultured, post-natal day 12, Müller glia (+/−Ascl1 overexpression, rtTA germline:tetO-Ascl1-ires-GFP mice ±doxycycline) were digested with papain/DNase to single cells and fixed with 0.75% formaldehyde for 10 minutes at room temperature. […] Libraries were prepared with standard Illumina adaptors and sequenced to an approximate depth of 36 million reads each. Sequence reads (36 bp) were mapped to the mouse mm9 genome using bwa (v 0.7.12-r1039). […]

WT retinas = conditions: mouse, in vivo
Source text: A) Experimental paradigm for analyzing STAT3 phosphorylation by western blot in MG. P11 retinas were dissociated and grown in a growth media containing mEGF for 7 DIV. MG were passaged to eliminate residual neurons and cultured in a media containing doxycycline to induce Ascl1 expression for 6 DIV. […] B) Representative images from confluent cultures of non-treated, DOX-treated, and DOX+STATi-treated MG just before harvesting. C) Representative western blot for pSTAT3 (Y705), STAT3, and Beta-actin on non-treated, Dox-treated, and Dox+STATi-treated MG cultures. […] Scale bars for B and E are 25 and 40 μm, respectively.
Immunohistochemistry (IHC): Upon euthanasia of adult mice, eyes were removed and comeas dissected away. Globes were then fixed for 1 hour in 4% PFA in PBS followed by an overnight incubation in 30% sucrose in PBS at 4° C. Fixed eyes were then frozen in O.T.C. (Sakura Finetek) at −80° C. until sectioned. Frozen eyes were sectioned on a cryostat (Leica) at 16-18 μm thick and were stored at −20° C. until staining. All washes were 3 times 20 minutes in PBS on a rotating plate at room temperature. Slides were washed then blocked in 10% normal horse serum, 0.5% Triton X-100 in PBS for a minimum of 1 hour prior to primary. All primary antibodies were diluted in blocking solution and applied to tissue for a minimum of 3 hours. […]

[2] = tested on: Ascl1-reporter Müller glia; assay: miRNA mimic/antagomiR transfection of P11 MG cultures from Ascl1-CreER:tdTomato reporter mice; type: cell-based, mouse
Source text: To test whether miRNAs regulate the neurogenic competence of MG, we used primary dissociated cell cultures, since this method has proven effective for identifying reprogramming factors that are effective both in vitro and in vivo (Jorstad et al., 2017; Pollak et al., 2013; Ueki et al., 2015). We hypothesized that miRNAs highly expressed in RPCs may be important in establishing and maintaining the RPC gene expression pattern. One prediction of this hypothesis is that over-expression of the RPC-miRNAs in MG would cause the MG to adopt a progenitor-like gene expression profile. […]
MG cultures from P11 Ascl1-CreER:tdTomatoflSTOP/flSTOP mice were transfected with either a cocktail of all four RPC-miR mimics, or each miRNA mimic individually (FIG. 10B). We added 4-Hydroxy-tamoxifen to the cultures to activate the cre-recombinase and monitored the cells for tdTomato expression. […]
Müller glia were dissociated (see above) from postnatal day (P) 11/12 mice and adult (one month, 2, and 4 months) and grown in Neurobasal medium supplemented with N-2, tetracycline-free 10% fetal bovine serum (FBS, Clontech), and epidermal growth factor (EGF, R&D Systems, 100 ng/mL) as described previously (Ueki et al., 2012). […] EdU was added either with the onset of culturing to track cell proliferation of MG lineage or after transfection to quantify cell proliferation due to the treatment. […]

Molecule | Ascl1 binding (ChIP-seq peaks) at STAT3 bound regions near Id1 and Id3 [1] | toxicity (TUNEL staining) (WT retinas) | Ascl1:tdTomato+ cells (Ascl1-reporter expression) ([2]; P11 MG cultures, days post-transfection vs control) | conversion of MG into a neuronal/RPC phenotype ([2]; young (P11) MG in vitro, summary statement)
CN(CC(=O)N(Cc1ccc(C2CCCCC2)cc1)c1ccc(C(=O)O)cc1)S(=O)(=O)c1c(F)c(F)c(F)c(F)c1F [SH-4-54] | Decreased Ascl1 binding | not found to be toxic | – | –
miR-25: miR-25 mimic, CAUUGCACUUGUCUCGGUCUGA (SEQ ID NO: 22); double-stranded, preprocessed miRNA (double-stranded mimic, other strand not given here) | – | – | significant increase | approximately 40%
